Data as given in patent US20250277012A1 (Protagonist Therapeutics, Inc., priority 2021, published 2025).
Like-named read-outs stand apart in the source and are kept apart here. Positions of bridges follow the written chain, without caps; N, C: chain ends. Non-standard residues stand in square brackets, D forms with d. Residues, ends and D or L forms follow the SMILES beside them. Groups on a side chain read outwards from the residue. *: point of attachment. CH3O(CH2CH2O)11CH2CH2CO = COCCOCCOCCOCCOCCOCCOCCOCCOCCOCCOCCOCCC(=O)*; X1 = C[N+](C)(CCNC(=O)CCCCCCCCCCCCCCCCC(=O)O)CC(=O)*; C18 diacid = O=C(O)CCCCCCCCCCCCCCCCC(=O)*; Dip = N[C@H](C(=O)O)C(c1ccccc1)c1ccccc1; Palmitoyl = CCCCCCCCCCCCCCCC(=O)*; dNMeQ = CN[C@H](CCC(N)=O)C(=O)O; β3hF = N[C@H](CC(=O)O)Cc1ccccc1; NMeK = CN[C@@H](CCCCN)C(=O)O; Pen = CC(C)(S)[C@H](N)C(=O)O; αMeK = C[C@](N)(CCCCN)C(=O)O; Isovaleryl = CC(C)CC(=O)*; Dap = NC[C@H](N)C(=O)O; AEEA = NCCOCCOCC(=O)O; Ahx = NCCCCCC(=O)O

Assays:
[1] = molecular target: T1, ferroportin (Homo sapiens, UniProt Q9NP59); experiment: T47D cell-based ferroportin internalization assay in presence of mouse serum albumin (MSA); design: a human breast carcinoma adherent cell line which endogenously expresses ferroportin; host or cells: T47D
T1 sequence (Q9NP59 1-571): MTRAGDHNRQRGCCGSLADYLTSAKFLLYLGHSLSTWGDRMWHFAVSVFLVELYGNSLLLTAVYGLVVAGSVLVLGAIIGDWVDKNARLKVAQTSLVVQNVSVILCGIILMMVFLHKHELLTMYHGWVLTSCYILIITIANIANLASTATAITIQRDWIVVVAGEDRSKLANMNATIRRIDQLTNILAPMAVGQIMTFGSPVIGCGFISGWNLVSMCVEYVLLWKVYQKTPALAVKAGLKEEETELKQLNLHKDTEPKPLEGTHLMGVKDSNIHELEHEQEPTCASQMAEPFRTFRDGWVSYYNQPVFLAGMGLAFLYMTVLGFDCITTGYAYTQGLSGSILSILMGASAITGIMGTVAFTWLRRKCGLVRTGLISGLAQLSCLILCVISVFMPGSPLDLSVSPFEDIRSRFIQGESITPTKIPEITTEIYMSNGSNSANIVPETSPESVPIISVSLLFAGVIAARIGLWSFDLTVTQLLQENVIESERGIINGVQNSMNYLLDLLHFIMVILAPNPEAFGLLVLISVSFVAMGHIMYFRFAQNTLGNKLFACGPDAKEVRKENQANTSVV
How it was run: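 Peptide potency for inducing ferroportin internalization was measured in T47D cells in the presence of serum albumin. Cells grown in RPMI with fetal bovine serum were seeded in 96-well plates at 80-100 k cells per well in 100 ul and rested overnight. Dilution series of test peptides were preincubated 30 min at room temperature, then added to the cells after the medium was aspirated.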

[2] = molecular target: T1, ferroportin; experiment: FPN activity assay: ferroportin-GFP internalization/degradation in HEK293 cells; type: cell-based; design: expressed in transfected cells; settings: read-out: FPN IC50
Procedure: Following internalization, the ferroporin protein is degraded.
A retro inverse peptide is a peptide with a reversed sequence in all D amino acids. An example is that Hy-Glu-Thr-His-NH2 becomes Hy-DHis-DThr-DGlu-NH2. The EC50 of these reference compounds for ferroportin internalization/degradation was determined according to the FPN activity assay described above. These peptides served as control standards.

[3] = T47D internalization assay in presence of mouse serum albumin (MSA), Table 6E
[4] = ferroportin-GFP internalization/degradation, HEK293 cells, Table 6E
[5] = Table 6E, T47D internalization assay with MSA
[6] = Table 6E, ferroportin-GFP internalization/degradation, at least 18 hours incubation
[7] = T47D cells, 0.5% mouse serum albumin, 1 hr incubation
[8] = ferroportin-GFP HEK293 cells, at least 18 hours

Compound	IC50 [1, 3]	DC50 [2, 4]	other results
CC(C)CC(=O)N[C@@H](CCC(=O)O)C(=O)N[C@H](C(=O)N[C@@H](Cc1c[nH]cn1)C(=O)N[C@H](C(=O)N1CCC[C@H]1C(=O)N[C@H]1CSSC[C@@H](C(=O)N(C)[C@@H](CCCCNC(=O)COCCOCCNC(=O)COCCOCCNC(=O)[C@H](CN)NC(=O)CCCCCCCCCCCCCCCCC(=O)O)C(=O)N[C@H](CC(=O)N[C@H](CCCCN)C(N)=O)Cc2ccccc2)NC1=O)C(c1ccccc1)c1ccccc1)[C@@H](C)O [compound 306] (Isovaleryl-ETH[Dip]PCC[NMeK]([AEEA-AEEA-Dap-C18 diacid])[β3hF][dK]-NH2; disulfide 6-7)	10 to 100 nM	10 to 100 nM	–
CC(C)CC(=O)N[C@@H](CCC(=O)O)C(=O)N[C@H](C(=O)N[C@@H](Cc1c[nH]cn1)C(=O)N[C@H](C(=O)N1CCC[C@H]1C(=O)N[C@H]1CSSC(C)(C)[C@@H](C(=O)N[C@@H](CCCCNC(=O)COCCOCCNC(=O)COCCOCCNC(=O)[C@H](CN)NC(=O)CCCCCCCCCCCCCCCCC(=O)O)C(=O)N[C@H](CC(=O)N[C@H](CCCCN)C(N)=O)Cc2ccccc2)NC1=O)C(c1ccccc1)c1ccccc1)[C@@H](C)O [compound 272] (Isovaleryl-ETH[Dip]PC[Pen]K([AEEA-AEEA-Dap-C18 diacid])[β3hF][dK]-NH2; disulfide 6-7)	10 to 100 nM	10 to 100 nM	–
COCCOCCOCCOCCOCCOCCOCCOCCOCCOCCOCCOCCC(=O)NCCCC[C@@H](NC(=O)C[C@H](Cc1ccccc1)NC(=O)[C@H](CCCCNC(=O)COCCOCCNC(=O)COCCOCCNC(=O)[C@H](CN)NC(=O)CCCCCCCCCCCCCCCCC(=O)O)N(C)C(=O)[C@@H]1CSSC[C@H](NC(=O)[C@@H]2CCCN2C(=O)[C@@H](NC(=O)[C@H](Cc2c[nH]cn2)NC(=O)[C@@H](NC(=O)[C@H](CCC(=O)OC)NC(=O)CC(C)C)[C@@H](C)O)C(c2ccccc2)c2ccccc2)C(=O)N1)C(N)=O [compound 254] (Isovaleryl-E(OMe)TH[Dip]PCC[NMeK]([AEEA-AEEA-Dap-C18 diacid])[β3hF][dK](CH3O(CH2CH2O)11CH2CH2CO)-NH2; disulfide 6-7)	10 to 100 nM	10 to 100 nM	–
COC(=O)CC[C@H](NC(=O)CC(C)C)C(=O)N[C@H](C(=O)N[C@@H](Cc1c[nH]cn1)C(=O)N[C@H](C(=O)N1CCC[C@H]1C(=O)N[C@H]1CSSC[C@@H](C(=O)N[C@@](C)(CCCCNC(=O)COCCOCCNC(=O)COCCOCCNC(=O)[C@H](CN)NC(=O)CCCCCCCCCCCCCCCCC(=O)O)C(=O)N[C@H](CC(=O)N[C@H](CCCCN)C(N)=O)Cc2ccccc2)NC1=O)C(c1ccccc1)c1ccccc1)[C@@H](C)O [compound 301] (Isovaleryl-E(OMe)TH[Dip]PCC[αMeK]([AEEA-AEEA-Dap-C18 diacid])[β3hF][dK]-NH2; disulfide 6-7)	10 to 100 nM	10 to 100 nM	–
COC(=O)CC[C@H](NC(=O)CC(C)C)C(=O)N[C@H](C(=O)N[C@@H](Cc1c[nH]cn1)C(=O)N[C@H](C(=O)N1CCC[C@H]1C(=O)N[C@H]1CSSC[C@@H](C(=O)N(C)[C@@H](CCCCNC(=O)[C@H](CN)NC(=O)CCCCCCCCCCCCCCCCC(=O)O)C(=O)N[C@H](C(=O)N[C@H](CCCCN)C(N)=O)C(c2ccccc2)c2ccccc2)NC1=O)C(c1ccccc1)c1ccccc1)[C@@H](C)O [compound 206] (Isovaleryl-E(OMe)TH[Dip]PCC[NMeK]([Dap-C18 diacid])[Dip][dK]-NH2; disulfide 6-7)	–	–	IC50 [1, 5]: 10 to 100 nM; DC50 [2, 6]: 10 to 100 nM
COC(=O)CC[C@H](NC(=O)CC(C)C)C(=O)N[C@H](C(=O)N[C@@H](Cc1c[nH]cn1)C(=O)N[C@H](C(=O)N1CCC[C@H]1C(=O)N[C@H]1CSSC[C@@H](C(=O)N[C@@H](CCCCNC(=O)CCCCCNC(=O)C[N+](C)(C)CCNC(=O)CCCCCCCCCCCCCCCCC(=O)O)C(=O)N[C@H](CC(=O)N[C@H](CCCCN)C(N)=O)Cc2ccccc2)NC1=O)C(c1ccccc1)c1ccccc1)[C@@H](C)O [compound 311] (Isovaleryl-E(OMe)TH[Dip]PCCK([Ahx-X1])[β3hF][dK]-NH2; disulfide 6-7)	10 to 100 nM	10 to 100 nM	–
CCCCCCCCCCCCCCCC(=O)NCCCCCC(=O)NCCCC[C@H](NC(=O)C[C@H](Cc1ccccc1)NC(=O)[C@@H]1CSSC[C@H](NC(=O)CC(C)C)C(=O)N[C@@H]([C@@H](C)O)C(=O)N[C@@H](Cc2c[nH]cn2)C(=O)N[C@@H](C(c2ccccc2)c2ccccc2)C(=O)N2CCC[C@H]2C(=O)N[C@@H](C)C(=O)N[C@@H]([C@@H](C)CC)C(=O)N1)C(=O)N[C@H](CCCCN)C(N)=O [Compd 43] (Isovaleryl-CTH[Dip]PAIC[β3hF]K([Ahx-Palmitoyl])[dK]-NH2; disulfide 1-8)	–	–	IC50 [1, 7]: > 500 nM; DC50 [2, 8]: 1 to 10 nM
COC(=O)CC[C@H](NC(=O)CC(C)C)C(=O)N[C@H](C(=O)N[C@@H](Cc1c[nH]cn1)C(=O)N[C@H](C(=O)N1CCC[C@H]1C(=O)N[C@H]1CSSC[C@@H](C(=O)N(C)[C@@H](CCCCNC(=O)CCCCCNC(=O)[C@H](CN)NC(=O)CCCCCCCCCCCCCCCCC(=O)O)C(=O)N[C@H](C(=O)N[C@H](CCCCN)C(N)=O)C(c2ccccc2)c2ccccc2)NC1=O)C(c1ccccc1)c1ccccc1)[C@@H](C)O [compound 207] (Isovaleryl-E(OMe)TH[Dip]PCC[NMeK]([Ahx-Dap-C18 diacid])[Dip][dK]-NH2; disulfide 6-7)	–	–	IC50 [1, 5]: 10 to 100 nM; DC50 [2, 6]: 1 to 10 nM
COC(=O)CC[C@H](NC(=O)CC(C)C)C(=O)N[C@H](C(=O)N[C@@H](Cc1c[nH]cn1)C(=O)N[C@H](C(=O)N1CCC[C@H]1C(=O)N[C@H]1CSSC[C@@H](C(=O)N(C)[C@@H](CCCCNC(=O)COCCOCCNC(=O)COCCOCCNC(=O)[C@H](CN)NC(=O)CCCCCCCCCCCCCCCCC(=O)O)C(=O)N[C@H](CC(N)=O)Cc2ccccc2)NC1=O)C(c1ccccc1)c1ccccc1)[C@@H](C)O [compound 256] (Isovaleryl-E(OMe)TH[Dip]PCC[NMeK]([AEEA-AEEA-Dap-C18 diacid])[β3hF]-NH2; disulfide 6-7)	10 to 100 nM	1 to 10 nM	–
COC(=O)CC[C@H](NC(=O)CC(C)C)C(=O)N[C@H](C(=O)N[C@@H](Cc1c[nH]cn1)C(=O)N[C@H](C(=O)N1CCC[C@H]1C(=O)N[C@H]1CSSC[C@@H](C(=O)N[C@@H](CCCCNC(=O)COCCOCCNC(=O)COCCOCCNC(=O)[C@H](CN)NC(=O)CCCCCCCCCCCCCCCCC(=O)O)C(=O)N[C@H](CC(=O)N[C@H](CCCCN)C(N)=O)Cc2ccccc2)NC1=O)C(c1ccccc1)c1ccccc1)[C@@H](C)O [Compd ID 42, Isovaleric Acid-[Glu_OMe]-T-H-[Dpa]-P-[Cys]-[Cys]-[Lys(1PEG2_1PEG2_Dap_C18_Diacid)]-[bhPhe]-[(D)Lys]-NH2] (Isovaleryl-E(OMe)TH[Dip]PCCK([AEEA-AEEA-Dap-C18 diacid])[β3hF][dK]-NH2; disulfide 6-7)	–	–	IC50 [1, 7]: 10 to 100 nM; DC50 [2, 8]: 10 to 100 nM
CC(C)CC(=O)N[C@@H](CCC(=O)O)C(=O)N[C@H](C(=O)N[C@@H](Cc1cnc[nH]1)C(=O)N[C@H](C(=O)N1CCC[C@H]1C(=O)N[C@H]1CSSC[C@@H](C(=O)N(C)[C@@H](CCCCNC(=O)COCCOCCNC(=O)COCCOCCNC(=O)[C@H](CN)NC(=O)CCCCCCCCCCCCCCCCC(=O)O)C(=O)N[C@H](CC(=O)N(C)[C@@H](CCCCN)C(N)=O)Cc2ccccc2)NC1=O)C(c1ccccc1)c1ccccc1)[C@@H](C)O [compound 292] (Isovaleryl-ETH[Dip]PCC[NMeK]([AEEA-AEEA-Dap-C18 diacid])[β3hF][NMeK]-NH2; disulfide 6-7)	1 to 10 nM	10 to 100 nM	–
CC(C)CC(=O)N[C@@H](CCC(=O)O)C(=O)N[C@H](C(=O)N[C@@H](Cc1c[nH]cn1)C(=O)N[C@H](C(=O)N1CCC[C@H]1C(=O)N[C@H]1CSSC[C@@H](C(=O)N(C)[C@@H](CCCCNC(=O)COCCOCCNC(=O)COCCOCCNC(=O)[C@H](CN)NC(=O)CCCCCCCCCCCCCCCCC(=O)O)C(=O)N[C@H](CC(=O)N[C@H](CCCCN)C(=O)N(C)[C@H](CCC(N)=O)C(N)=O)Cc2ccccc2)NC1=O)C(c1ccccc1)c1ccccc1)[C@@H](C)O [compound 248] (Isovaleryl-ETH[Dip]PCC[NMeK]([AEEA-AEEA-Dap-C18 diacid])[β3hF][dK][dNMeQ]-NH2; disulfide 6-7)	10 to 100 nM	10 to 100 nM	–
